Data taken from patent US20070015771A1, “Lonidamine analogs” (Threshold pharmaceuticals, Inc., priority 2004, published 2007).
pIC50: −log10 of the molar value. Like-named read-outs stand apart in the source and are kept apart here.

How the values were obtained:
PC3 cells = test: Antiproliferation assay 3 days, PC3 cells; assay type: cell-based, human; settings: 3 day treatment; read-out: PC-3 cell line IC50
Experimental: (§1) To determine the effect of lonidamine analogs thereof on cell proliferation, the antiproliferative activity of these compounds was tested in a multi-well Alamar Blue based assay (at 3 days). Cell growth in the presence and absence of the test compound was compared, as measured by a fluoresence plate reader at excitation 550 nm and emission 590 nm (see Biosource International Inc., Tech Application Notes, Use of Alamar Blue in the measurement of Cell Viability and Toxity, Determining IC50). The following cell lines were tested: PWR-1E cells ((ATCC CRL-11611), 3500 cells/well/200 μl in Keratinocyte SFM medium (Gibco Products, Invitrogen Corporation, Carlsbad, Calif.)); DU-145 cells ((ATCC HTB-81), 4000 cells/well/200 μl in MEM Eagles medium (ATCC, Manassas, Va.)); PC3 cells ((ATCC CRL-1435), 4000 cells/200 μl in Modified HAM's F12 medium (ATCC, Manassas, Va.)); PNt2 cells ((Sigma-Aldrich, 95012613-1 VL), 4000 cells/well/200 μl in RPMI medium (Gibco Products, Invitrogen Corporation, Carlsbad, Calif.), BPH-1 ((DSMZ ACC-143), 4000 cells/well/200 μl in RPMI medium (Gibco Products, Invitrogen Corporation, Carlsbad, Calif), and NCI-H460 cells ((ATCC HTB-177), 4000 cells/well/200 μl in RPMI medium (Gibco Products, Invitrogen Corporation, Carlsbad, Calif.)). The cells were seeded in a 96 well plate in a medium specified above. After 24 hours, these plates were divided into 2 groups—Control group and 3 day treatment group. A test compound was added to each plate in the treatment groups at concentrations of […] as tabulated in Table 1 (in 2 μl 1 of 100% DMSO, final DMSO concentration 1% in all wells). For NCI-H460 cells, test compounds were added to each plate in the treatment groups at concentrations of 600, 300, 100, 30, 10, 3, and 1 μM (in 2 μl of 100% DMSO, final DMSO concentration 1% in all wells). The cells in the 3 day treatment group were incubated for 3 days, followed by staining with AlamarBlue. In the Control group, AlamarBlue was added to the plate at (i) day 0 and (ii) day 3 and measured to establish the control reading. […] For the NCI-H460 cells, the capacity of the cells to proliferate was measured 5 hours after addition of AlamarBlue using the same fluorescence plate reader as stated above.

left and right testis = test: Mouse study, 10 days oral, testis weight; assay type: in vivo; settings: C57B1/6J mice, oral daily for 10 days, 0.2-20 mg/kg
Experimental: (§2) The control mice received an equal amount of the vehicle (carboxymethylcellulose). […] Relative weights of entire prostate and individual lobes were calculated by dividing the corresponding absolute weight by the total weight of the mouse. Relative weights of the entire prostate, the dorsal prostate, and the ventral prostate were calculated by dividing the absolute weight by the total weight of the mouse. Relative weights of the left and right testis were calculated by dividing the corresponding absolute weights by the total weights of the mouse.

PNt2 cells = test: Antiproliferation assay 3 days, PNt2 cells; assay type: cell-based; settings: 3 day treatment; read-out: PNT2c cell line IC50
Experimental: as §1

testes = test: 5 day systemic administration in male SH rats, testis; assay type: in vivo, rat; settings: male SH rats, oral daily for 5 days at 50 mg/ml, day 6
mouse prostate = test: Mouse study, 10 days oral, prostate weight; assay type: in vivo; settings: C57B1/6J mice, oral daily for 10 days, 0.2-20 mg/kg
Experimental: as §2

mouse prostate cells = test: In vivo viability and proliferation of mouse prostate cells (TUNEL, PCNA); settings: mice treated with 20 mg/kg, with respect to vehicle
Experimental: Prostate cells harvested from mice treated with 20 mg/kg of Compound I were assayed by the TUNEL assay (e.g., see Example 48).

PWR-1E cells = test: Antiproliferation assay 3 days, PWR-1E cells (Example 49); assay type: cell-based; settings: 3 day treatment; read-out: PWR1e cell line IC50
Experimental: as §1

H460 cells = test: Antiproliferation assay (Alamar Blue), H460 cells; assay type: cell-based
Experimental: To determine the effect of lonidamine and analogs thereof on cell proliferation, the antiproliferative activity of these compounds was tested in a multi-well Alamar Blue based assay (at 2 h and 3 days). Cell growth in the presence and absence of the test compound (compounds 1-22) was compared, as measured by a fluorescence plate reader at excitation 550 nm and emission 590 nm (see Biosource International Inc., Tech Application Notes, Use of Alamar Blue in the measurement of Cell Viability and Toxicity, Determining IC50). H460 cells (ATCC HTB-177 ([…]), 4,000 cells/well/200 μl) and LNCap cells (ATCC CRL-1740, 6,000 cells/well/200 μl) were seeded in a 96 well plate in RPMI medium (Invitrogen Corporation, Carlsbad, Calif.). After 24 hours, these plates were divided into 3 groups—Control group, 2 h treatment group and 3 day treatment group. In the 2 h treatment group, after 2 h the cells were rinsed to remove the test compound and incubated for 3 days, followed by staining with AlamarBlue. The cells in the 3 day treatment group were incubated for 3 days, followed by staining with AlamarBlue. In the Control group, AlamarBlue was added to the plate at (i) day 0 and (ii) day 3 and measured to establish the control reading.

BPH-1 = test: Antiproliferation assay 3 days, BPH-1 cells; assay type: cell-based; settings: 3 day treatment; read-out: BPH-1 cell line IC50
Experimental: as §1

With `O=C(NO)c1nn(Cc2ccc(Cl)cc2Cl)c2ccccc12` [Compound 1] as the molecule, how does the pIC50 (PC3 cells) read?
The pIC50 was 4.82.

What about the “absolute left testis weight (FIG. 13)” value (left and right testis) of the same molecule?
Its value is “dose dependent reduction”.

What about the “absolute right testis weight (FIG. 12)” value (left and right testis) of the same molecule?
The value was “dose dependent reduction”.

What about the “relative left testis weight (FIG. 5)” value (left and right testis) of the same molecule?
The value was “dose dependent reduction”.

What about the “relative right testis weight (FIG. 4)” value (left and right testis) of the same molecule?
The value was “dose dependent reduction”.

What about the pIC50 (PNt2 cells) of the same molecule?
The pIC50 was 4.77.

And the Testis shrinkage (testes)?
The Testis shrinkage was −2.5%.

What about the “absolute dorsal prostate weight (FIG. 10)” value (mouse prostate) of the same molecule?
Its value is “dose dependent reduction”.

And the “absolute ventral prostate weight (FIG. 9)” value (mouse prostate)?
The value was “dose dependent reduction”.

What about the “absolute whole prostate weight (FIG. 11)” value (mouse prostate) of the same molecule?
Its value is “dose dependent reduction”.

What about the prostate weight (mouse prostate) of the same molecule?
The prostate weight was “dose dependent reduction”.

What about the “relative dorsal prostate weight (FIG. 7)” value (mouse prostate) of the same molecule?
The value was “dose dependent reduction”.

And the “relative ventral prostate weight (FIG. 8)” value (mouse prostate)?
Its value is “dose dependent reduction”.

And the “relative whole prostate weight (FIG. 6)” value (mouse prostate)?
Its value is “dose dependent reduction”.

And the “apoptosis of prostate cells (TUNEL assay)” value (mouse prostate cells)?
The value was “more apoptotic”.

And the “cell cycle inhibition (PCNA assay)” value (mouse prostate cells)?
The value was “greater cell cycle inhibition”.

What about the pIC50 (PWR-1E cells) of the same molecule?
Its pIC50 is 5.28.

What about the GI50 (H460 cells; 3 day treatment, read-out: GI50 H460 cell 3 days) of the same molecule?
The GI50 was 15.8 µM.

And the GI50 (H460 cells; read-out: GI50 H460 cell 2 hr, 2 h treatment then 3 days incubation)?
The GI50 was 50 µM.

What about the pIC50 (BPH-1) of the same molecule?
The pIC50 was 4.76.
